Experimental data taken from patent US11931451B2, “Skin lightening compounds from fruit seed extracts” (WiSys Technology Foundation, Inc., priority 2016, dated 2024).

Columns and labels:
[1] = system: tyrosinase enzyme (from mushroom); assay: Tyrosinase inhibition assay (L-DOPA to dopachrome, absorbance at 475 nm); assay type: biochemical; conditions: 0.001-1 mg/mL, FIGS. 11-12
Protocol: Extracts were tested for their ability to inhibit the enzyme tyrosinase. This enzyme catalyzes the air oxidation of L-DOPA (colorless) to the compound dopachrome, which is a highly colored intermediate in the production of melanin. The dopachrome molecule absorbs strongly at 475 nm. So, measuring the rate of change of absorption at this wavelength using UV/visible spectroscopy can easily assess the enzyme's activity. The tyrosinase enzyme (from mushroom) was purchased from Sigma-Aldrich as a lyophilized powder with an activity of 5771 units per mg of solid (a unit of activity is defined as the rate at which the enzyme catalyzes the reaction of a standard substrate at a standard concentration). […] Next, the enzyme solution was added (500 μL), the cuvette was covered with a piece of Parafilm and inverted twice to thoroughly mix the solutions, and immediately after the cuvette was placed in a UV/visible spectrometer and absorbance was measured at 475 nm every second for 60 seconds. The slope of the line formed by graphing change in absorbance versus time gave the rate in units of AA/second. […] Percentage inhibition values were calculated by taking the rate of the blank run with no inhibitor minus the rate of the inhibited sample and then dividing that value by the blank rate and multiplying by 100. […]

[2] = Solubility of extracts and reference compounds in solvents / assay medium; assay type: physicochemical
Description: A 2.5 gram sample of a red raspberry seed extract in a dry powder form was split into two fractions, one combined 1.25 grams of the dry extract with 11.25 grams of water to create a 10% aqueous solution of the extract. […] Combining 1.25 grams of the dry extract with about 11.25 grams of Isopropyl alcohol (91%) produced an about 10% alcohol solution.
Using pure water was explored in extraction experiments with cranberry seed powder. The advantages of using water were essentially zero cost and toxicity. […] The limitations of using water were that it gave quite low yields in extractions at room temperature and only dissolved the most polar compounds from the seed powders, leaving most of the medium polarity materials behind. It is possible that this could be improved by heating. […] Simply filtering the mixture through inexpensive filter paper by gravity or mild vacuum was unsuccessful. One solution that worked was mixing in filtering media (diatomaceous earth) and then vacuum filtering through a bed of the same filtering medium. To completely clarify the mixture, an additional treatment with activated carbon and further vacuum filtering through a bed of diatomaceous earth was effective. Given the limitations of water extraction, it was not used extensively. One exception was the use of sodium hydroxide solutions in water to extract pomegranate seed powder, which contained significant amounts of the targeted compound ellagic acid. […] Therefore, 1 M aqueous sodium hydroxide solution was used to extract this material from pomegranate seed powder. After filtering away the solid seed material the solution was acidified to pH=4 by addition of 1 N HCl. A small amount of solid developed, which was filtered with some difficulties.
The extracts in Tables 2 and 3, prepared from 70:30 methanol/water, were tested for their ability to inhibit tyrosinase at concentrations of 1.0 mg/mL, 0.1 mg/mL, 0.01 mg/mL, and in some cases 0.001 mg/mL. For comparison several other known tyrosinase inhibitors including kojic acid, alpha-arbutin, beta-arbutin, hydroquinone, and quercetin were tested. Kojic acid is often used in tyrosinase inhibition studies as a benchmark inhibitor for comparison with other inhibitors. I included beta-arbutin and hydroquinone due to their relevance in skin whitening applications. Additionally, several commercial skin whitening agents were also tested. These included a product called Radian Skin from BASF, and an arbutin material sold by the company Presperse. […] Even highly dilute samples of ellagic acid were not sufficiently soluble. […] Finally, a mixture of red raspberry and tomato extracts (FIG. 10) was tested to look for possible synergistic effects in mixtures on two quite different materials. […]

SMILES	tyrosinase inhibition strength (in words, from dose-response curves) [1]	solubility (medium not stated) [2]	solubility in water ([2]; high pH)	solubility in water ([2]; neutral pH)	solubility in the enzyme assay ([2]; tyrosinase assay medium)
O=c1c(O)c(-c2ccc(O)c(O)c2)oc2cc(O)cc(O)c12 [quercetin]	considerably more potent than the others	–	–	–	–
O=c1cc(CO)occ1O [kojic acid]	strongest inhibitor	–	–	–	–
O=c1oc2c(O)c(O)cc3c(=O)oc4c(O)c(O)cc1c4c23 [ellagic acid]	–	highly insoluble	very water soluble	only slightly soluble	highly insoluble
